# Assay results as given in patent US12599604B2, “Application of JAK inhibitor in kidney disease” (JIANGSU HENGRUI PHARMACEUTICALS CO., LTD., priority 2020, dated 2026).
# Key:
# [1] = test system: cisplatin-induced acute kidney injury mouse models; assay: Cisplatin-induced acute kidney disease models (Example 4); format: in vivo; conditions: for mortality rate of the mice: day 7 post modeling, same dosage (2.5 mg/kg oral BID per the 4th table), n=10
# Description: After arrival and subsequent 7-day acclimation, the animals were randomly grouped. Except the animals in the control group, all other animals needed to be modeled by intraperitoneal injection with cisplatin. From day −3 to day 0, the mice in each group were administered BID. On the day of modeling (day 0), the animals were intraperitoneally injected with cisplatin (15 mg/kg) post administration in the morning. The dosing was continued until day 7. After the modeling, serum and urine samples were collected from the animals on day 4 and day 7, respectively, to measure the blood creatinine, urea nitrogen, and urinary albumin/creatinine (UACR) levels.
# (§1) The effects of the compounds on the kidney were then evaluated.
# [2] = target: Janus kinase subtype 1 (Homo sapiens, UniProt P23458); conditions: background statement, no data; cited from earlier work
# [3] = test system: ischemia-reperfusion mouse models; assay: Ischemia-reperfusion models in mice (Examples 1 and 2); format: in vivo
# Description: After arrival and subsequent 7-day acclimation, the animals were randomly grouped. Except the animals in the control group, all other animals needed to be modeled. On day −1, the mice in each group were administered by gavage twice a day (BID). On the day of surgery (day 0), the mice underwent surgery post administration in the morning. On day 1, the dosing was continued, and on day 2, the endpoint treatment was performed. The mice were subjected to blood collection 24 hours and 48 hours post surgery, and for the endpoint treatment, their kidneys were taken and fixed in a formaldehyde solution for subsequent HE pathological detection.
# The specific steps of the ischemia-reperfusion surgery were as follows: the mice were anesthetized with 4% chloral hydrate (10 ml/kg, ip) and secured in a prone position. An incision was made on the back and the right kidney was isolated while ensuring that the adrenal gland and ureter were not injured. The renal artery and renal vein were ligated and the right kidney was excised. The left kidney was isolated, and the renal arterial and venous tracts were carefully separated and clipped for 30 min using a mini bulldog clamp, and then the clamp was loosened. The skin was sutured layer by layer with a needle and thread, and the mice were returned to their cages for recovery.
# as §1
# [4] = test system: LPS-induced acute kidney injury mouse models; assay: Lipopolysaccharide (LPS)-induced acute kidney disease models (Example 3); format: in vivo; conditions: FIG. 10
# Description: After arrival and subsequent 7-day acclimation, the animals were randomly grouped. Except the animals in the control group, all other animals needed to be modeled by intraperitoneal injection with LPS. From day −2 to day 0, the mice in each group were administered by gavage, BID. On the day of modeling (day 0), the animals were intraperitoneally injected with LPS (12 mpk) post administration in the morning. Blood samples were collected after 24 h, and creatinine and urea nitrogen levels were measured.
# as §1
# Sequence of Janus kinase subtype 1 (P23458 whole entry, the tested form may be a part): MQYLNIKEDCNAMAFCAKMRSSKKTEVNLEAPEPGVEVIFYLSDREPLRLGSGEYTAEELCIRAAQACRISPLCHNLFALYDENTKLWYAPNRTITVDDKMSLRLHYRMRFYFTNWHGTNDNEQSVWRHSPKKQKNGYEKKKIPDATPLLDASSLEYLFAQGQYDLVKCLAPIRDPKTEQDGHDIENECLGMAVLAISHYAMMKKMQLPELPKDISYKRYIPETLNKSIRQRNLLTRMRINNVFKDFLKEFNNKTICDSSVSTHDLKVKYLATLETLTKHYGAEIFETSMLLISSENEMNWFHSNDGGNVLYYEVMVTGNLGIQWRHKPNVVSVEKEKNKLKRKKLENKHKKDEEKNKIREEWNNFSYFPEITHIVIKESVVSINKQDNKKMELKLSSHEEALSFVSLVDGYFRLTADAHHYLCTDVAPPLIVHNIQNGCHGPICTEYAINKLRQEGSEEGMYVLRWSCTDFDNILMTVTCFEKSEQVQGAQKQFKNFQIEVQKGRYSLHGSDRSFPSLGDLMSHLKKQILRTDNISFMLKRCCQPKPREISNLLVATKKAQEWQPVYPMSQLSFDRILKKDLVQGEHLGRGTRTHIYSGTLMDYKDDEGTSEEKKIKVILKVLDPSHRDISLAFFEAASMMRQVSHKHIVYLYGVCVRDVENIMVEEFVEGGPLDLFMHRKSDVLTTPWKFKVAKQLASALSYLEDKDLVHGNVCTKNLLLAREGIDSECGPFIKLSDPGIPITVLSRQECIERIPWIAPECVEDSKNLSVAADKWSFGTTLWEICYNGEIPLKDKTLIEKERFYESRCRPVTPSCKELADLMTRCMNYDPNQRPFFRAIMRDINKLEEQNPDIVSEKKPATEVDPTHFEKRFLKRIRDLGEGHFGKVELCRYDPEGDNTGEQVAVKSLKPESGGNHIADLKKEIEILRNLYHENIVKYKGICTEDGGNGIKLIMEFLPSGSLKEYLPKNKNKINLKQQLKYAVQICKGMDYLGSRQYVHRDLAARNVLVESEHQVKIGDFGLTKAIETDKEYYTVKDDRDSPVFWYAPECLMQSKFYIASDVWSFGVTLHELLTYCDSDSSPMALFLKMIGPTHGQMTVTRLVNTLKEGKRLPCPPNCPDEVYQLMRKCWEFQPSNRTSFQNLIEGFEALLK
SMILES,mortality rate of the mice [1],"blood creatinine and urinary albumin levels induced by cisplatin ([1]; 1.25, 2.5, 5 mg/kg oral BID, cisplatin 15 mg/kg ip, FIG. 11)","blood creatinine, blood urea nitrogen, urinary albumin/creatinine ratio, significance ([1]; 2.5 mpk and 5 mpk oral BID, FIG. 11)","kidney protective functions compared with compound B ([1]; cisplatin models, FIG. 11)","mortality of the mice ([1]; different dosages (1.25, 2.5, 5 mg/kg oral BID), model group 100% dead on day 6)",inhibitory activity against Janus kinase subtype 1 relative to subtype 2 or subtype 3 (selectivity) [2],"kidney/body weight ratio (renal compensatory hypertrophy) ([3]; Example 1, 10 mg/kg oral BID, 48 hours post modeling, FIG. 6)","improvement of kidney/body weight ratio compared with compound B ([3]; Example 1, 10 mg/kg oral BID, FIG. 6)","body weight reduction caused by ischemia-reperfusion ([3]; Example 1, 10 mg/kg oral BID, compared with compound B at the same dosage, FIG. 5)","kidney HE pathological scores ([3]; Example 1, 10 mg/kg oral BID, scores 0-3, FIG. 9)","blood creatinine and urea nitrogen, difference from the model group ([3]; Example 2, 5 mpk and 10 mpk oral BID, FIG. 8)","renal hypertrophy, difference from the model group ([3]; Example 2, 5 mpk oral BID, FIG. 7)","renal hypertrophy caused by ischemia-reperfusion (kidney/body weight ratio) ([3]; Example 2, all dosage groups 2.5 mpk, 5 mpk and 10 mpk oral BID, FIG. 7)","blood creatinine and urea nitrogen levels ([3]; Example 2, all dosage groups 2.5 mpk, 5 mpk and 10 mpk oral BID, FIG. 8)","blood creatinine and urea nitrogen, protective effect compared with compound B ([3]; Example 2, same dosage (5 mg/kg oral BID), FIG. 8)",overall kidney protective effect compared with compound B ([3]; Examples 1 and 2),"overall kidney protective effect (mortality, renal hypertrophy, kidney pathology, blood biochemical parameters) ([3]; Examples 1 and 2, compared with the model group)","kidney protective functions, 5 mpk and 10 mpk compared with 2.5 mpk group ([4]; 5 mpk and 10 mpk oral BID)","blood creatinine and urea nitrogen levels induced by LPS ([4]; different dosage groups (2.5, 5, 10 mg/kg oral BID), 24 h after LPS 12 mpk ip)"
"CCS(=O)(=O)N1CC(CC#N)(n2cc(-c3ncnc4[nH]ccc34)cn2)C1 [Compound B, Baricitinib, reference compound]",80%,–,–,–,–,–,–,–,–,–,–,–,–,–,–,–,–,–,–
"COc1nsc(NC(=O)N2C[C@H]3C[C@H](N(C)c4ncnc5[nH]ccc45)C[C@H]3C2)n1 [Compound A, (3 aR,5 s,6aS)—N-(3-methoxy-1,2,4-thiadiazol-5-yl)-5-(methyl(7H-pyrrolo[2,3-d]pyrimidin-4-yl)amino)hexahydrocyclopenta[c]pyrrole-2(1H)-carb oxamide]",40%,dose-dependently alleviated the increase in blood creatinine and urinary albumin levels,showed significant differences,exhibited stronger kidney protective functions,significantly decreased the mortality,stronger inhibitory activity against Janus kinase subtype 1 relative to Janus kinase subtype 2 or Janus kinase subtype 3,decreased kidney/body weight ratios,had some advantages in improving the kidney/body weight ratios,smaller decrease in body weight,significantly improved the kidney HE pathological scores,showed significant differences compared with the model group,significant difference,could reduce the renal hypertrophy,alleviated the increase in blood creatinine and urea nitrogen levels,stronger protective effect compared with compound B,more excellent kidney protective effect,exhibited kidney protective effects,Stronger kidney protective functions,significantly alleviated the increase in blood creatinine and urea nitrogen levels
